{
  "source": "patent US20220275341A1",
  "about": "“ORGANOID MESODERM LINEAGE DIVERSIFICATION” (CHILDREN'S HOSPITAL MEDICAL CENTER, priority 2019, published 2022)",
  "test_system": "hPSC-derived primitive splanchnic mesoderm (SM)",
  "assay": "Treatment of hPSC-derived primitive SM from d4-d7 with HH, RA, Wnt and BMP agonists or antagonists; RT-PCR, immunostaining, RNA-scope",
  "type": "cell-based, human",
  "method": "For RNAscope on mouse tissue, fixed embryos were immersed in 30% sucrose/PBS overnight, embedded in OCT, cryosectioned (12 μm) onto Superfrost Plus slides (Thermo Fisher) and stored at −80° C. overnight. For RNAscope of adherent hPSC culture, cells were differentiated on Geltrex-coated u-Slide 8 well (ibid) and fixed in 4% PFA at room temperature for 30 min, Cells were dehydrated with ethanol gradient and stored in 100% ethanol at −20° C. RNAscope fluorescent in situ hybridization was conducted with RNAscope Multiplex Fluorescent Detection Reagents V2 (Advanced Cell Diagnostics, Inc.) and Opal fluorophore (Akoya Biosciences) according to manufacturer's instructions.\nDifferentiation of hPSCs into lateral plate mesoderm was induced using previously described methods with modifications. In brief, partially confluent hPSCs were dissociated into very fine clumps in Accutase (Invitrogen) and passaged 1:18 onto new Geltrex-coated 24-well plates for immunocytochemistry and 12-well plates for RNA preparation in mTeSR1 with 1 μM thiazovivin (Tocris) (Day 1). […]\nTotal RNA was prepared from differentiating human ES cells by using Nucleospin kit according to manufacturer's protocol. […] Significance was determined by one-way ANOVA, followed by Tukey's test. […]",
  "data": [
    {"compound": "c1ccc2c(Oc3nc(Nc4ccc(N5CCOCC5)cc4)c4ncn(C5CCCCC5)c4n3)cccc2c1", "note": "[HH-agonist, purmorphamine]", "values": [
      {"measurement": "gut tube identity", "result": "promoted"},
      {"measurement": "hepatic fate", "result": "efficiently blocked"}
    ]}
  ]
}
